Paper PMC8027415, “Plant resistome profiling in evolutionary old bog vegetation provides new clues to understand emergence of multi-resistance” (The ISME Journal, 2020)

System: T1, Mm3 (β-lactamase from Moss metagenome clone 3; blaMm3)
T1 construct: mix of tagged 35 kDa and 32 kDa species lacking tag
Experiment: spectrophotometric hydrolysis at […] nm, initial rates
Type: biochemical, uncultured bacterium
Settings: 20 mM sodium phosphate, 0.2 M NaCl, pH 7.4, 30 °C

| SMILES | Km (fitted with the Michaelis-Menten equation) | Km (fitted with the Hill equation (half-saturation constant)) |
| --- | --- | --- |
| CC1(C)S[C@@H]2[C@H](NC(=O)C(C(=O)O)c3ccccc3)C(=O)N2[C@H]1C(=O)O (some centres unmarked) [carbenicillin] | 400 ± 42.7 µM | – |
| CC1(C)S[C@@H]2[C@H](NC(=O)[C@H](N)c3ccccc3)C(=O)N2[C@H]1C(=O)O [ampicillin] | – | 271 ± 16.4 µM |
